Legend:
[1] = Selectivity ratio of EC50 for inhibition of GGTase in H-Ras transformed mouse NIH3T3 cells using Rap 1A as substrate assessed as inhibition of substrate prenylation in presence of 10% bovine serum to EC50 for inhibition of FTase in H-Ras transformed mouse NIH3T3 cells using Ras as substrate assessed as inhibition of substrate prenylation in presence of 10% bovine serum; settings: condition cancer
[2] = Cmax in rat at 5 mg/kg, po; assay type: ADME, organism-based; settings: in vivo
[3] = Inhibition of FTase in H-Ras transformed mouse NIH3T3 cells using Ras as substrate assessed as inhibition of substrate prenylation in presence of 10% bovine serum by immunoblot analysis; assay type: cell-based
HCT-116 [4] = assay: Antitumor activity against human HCT-116 cells xenografted in nu/nu CD1 mouse assessed as reduction in tumor volume by measuring tumor to control ratio at 25 mg/kg, sc preinoculated with cells for 5 days followed by once daily compound administration for 21 days and measured on day 25; assay type: functional; settings: time 25 day
NIH3T3 [5] = assay: Inhibition of VEGF secretion in mouse NIH3T3 cells incubated for 72 hrs ELISA; assay type: functional, cell-based; settings: dose 0.1-3 µmol/L
HCT-116 [6] = assay: Antitumor activity against human HCT-116 cells xenografted in nu/nu CD1 mouse assessed as tumor volume at 50 mg/kg, sc preinoculated with cells for 14 days followed by once daily compound administration for 21 days and measured on day 40 (reference value: 2973 +/- 593 mm^3); assay type: functional; settings: time 40 day
HCT-116 [7] = assay: Antitumor activity against human HCT-116 cells xenografted in nu/nu CD1 mouse assessed as reduction in tumor volume by measuring tumor to control ratio at 6.25 mg/kg, sc preinoculated with cells for 5 days followed by once daily compound administration for 21 days and measured on day 25; assay type: functional; settings: time 25 day
HCT-116 [8] = assay: Antitumor activity against human HCT-116 cells xenografted in nu/nu CD1 mouse assessed as increase in life span at 50 mg/kg, sc preinoculated with cells for 5 days followed by once every 2 days compound administration for 11 times and measured on day 22 relative to vehicle in time to 1 cm3 tumor; assay type: functional; settings: HCT-116, 528 h, time 22 day
HCT-116 [9] = assay: Antitumor activity against human HCT-116 cells xenografted in nu/nu CD1 mouse assessed as tumor volume at 6.25 mg/kg, sc preinoculated with cells for 5 days followed by once daily compound administration for 21 days and measured on day 25 (reference value: 1569 +/- 165 mm^3); assay type: functional; settings: time 25 day
[10] = Ratio of EC50 for inhibition of FTase in human HCT-15 cells expressing high level of P-gp1 using Ras as substrate assessed as inhibition of substrate post-translation processing in presence of 20% human serum to EC50 for inhibition of FTase in human HCT-15 cells expressing high level of P-gp1 using Ras as substrate assessed as inhibition of substrate post-translation processing in presence of 10% …; settings: condition cancer
HCT-116 [11] = assay: Antitumor activity against human HCT-116 cells xenografted in nu/nu CD1 mouse assessed as increase in life span at 12.5 mg/kg, sc preinoculated with cells for 5 days followed by once daily compound administration for 21 days and measured on day 25 relative to vehicle in time to 1 cm^3 tumor; assay type: functional; settings: HCT-116, 600 h, time 25 day
[12] = Oral bioavailability in dog at 2.5 mg/kg; assay type: ADME, organism-based, Canis lupus familiaris; settings: in vivo
[13] = Ratio of EC50 for inhibition of FTase in human DLD-1 cells expressing moderate level of P-gp1 using Ras as substrate assessed as inhibition of substrate post-translation processing in presence of 20% human serum to EC50 for inhibition of FTase in human DLD-1 cells expressing moderate level of P-gp1 using Ras as substrate assessed as inhibition of substrate post-translation processing in presence …; settings: condition cancer
HCT-116 [14] = assay: Antitumor activity against human HCT-116 cells xenografted in nu/nu CD1 mouse assessed as reduction in tumor volume by measuring test to control ratio at 50 mg/kg, sc preinoculated with cells for 5 days followed by once every 2 days compound administration for 11 times and measured on day 22; assay type: functional; settings: time 22 day
HCT-116 [15] = assay: Antitumor activity against human HCT-116 cells xenografted in nu/nu CD1 mouse assessed as tumor volume at 12.5 mg/kg, sc preinoculated with cells for 5 days followed by once daily compound administration for 21 days and measured on day 25 (reference value: 1569 +/- 165 mm^3); assay type: functional; settings: time 25 day
HCT-116 [16] = assay: Antitumor activity against human HCT-116 cells xenografted in nu/nu CD1 mouse assessed as increase in life span at 100 mg/kg, sc preinoculated with cells for 5 days followed by once every 2 days compound administration for 11 times and measured on day 22 relative to vehicle in time to 1 cm3 tumor; assay type: functional; settings: HCT-116, 528 h, time 22 day
[17] = Volume of distribution in rat at 5 mg/kg, iv; assay type: ADME, organism-based; settings: in vivo
[18] = AUC in rat at 25 mg/kg, po; assay type: ADME, organism-based; settings: in vivo
[19] = Volume of distribution in dog at 2.5 mg/kg, iv; assay type: ADME, organism-based, Canis lupus familiaris; settings: in vivo
Mus musculus [20] = assay: Antiangiogenic activity in human recombinant bFGF-stimulated CF1 mouse corneal model assessed as inhibition of new blood growth area at 25 mg/kg, sc prestimulated with bFGF followed by compound administration and measured on day 5 by slit lamp biomicroscopic analysis relative to control; assay type: functional; settings: CF1, 120 h, time 5 day
[21] = Oral bioavailability in rat at 5 mg/kg; assay type: ADME, organism-based; settings: in vivo
[22] = Cmax in dog at 2.5 mg/kg, po; assay type: ADME, organism-based, Canis lupus familiaris; settings: in vivo
[23] = Oral bioavailability in rat at 25 mg/kg; assay type: ADME, organism-based; settings: in vivo
[24] = Inhibition of recombinant bovine FTase incubated for 30 mins in presence of [3H]FPP by SPA based Topcount scintillation plate reader analysis; design: species or system Bos taurus
HCT-116 [25] = assay: Antitumor activity against human HCT-116 cells xenografted in nu/nu CD1 mouse assessed as increase in life span at 6.25 mg/kg, sc preinoculated with cells for 5 days followed by once daily compound administration for 21 days and measured on day 25 relative to vehicle in time to 1 cm^3 tumor; assay type: functional; settings: HCT-116, 600 h, time 25 day
[26] = Half-life in dog at 2.5 mg/kg, po; assay type: ADME, organism-based, Canis lupus familiaris; settings: in vivo
NIH3T3 [27] = assay: Inhibition of anchorage-independent growth in H-Ras transformed mouse NIH3T3 cells assessed as inhibition of colony formation incubated for 14 days in presence of 10% bovine serum by imaging based soft agar colony formation assay; assay type: functional, cell-based
Mus musculus [28] = assay: Antiangiogenic activity in human recombinant bFGF-stimulated CF1 mouse corneal model assessed as inhibition of new blood growth area at 50 mg/kg, sc prestimulated with bFGF followed by compound administration and measured on day 5 by slit lamp biomicroscopic analysis relative to control; assay type: functional; settings: CF1, 120 h, time 5 day
HCT-116 [29] = assay: Inhibition of VEGF mRNA expression in human HCT-116 cells incubated for 72 hrs by qRT-PCR analysis; assay type: functional, cell-based; settings: dose 1-30 µmol/L
HCT-116 [30] = assay: Antitumor activity against human HCT-116 cells xenografted in nu/nu CD1 mouse assessed as tumor volume at 50 mg/kg, sc preinoculated with cells for 5 days followed by once every 2 days compound administration for 11 times and measured on day 22 (reference value: 1557 +/- 370 mm^3); assay type: functional; settings: time 22 day
[31] = Selectivity index, ratio of IC50 for inhibition of bovine GGTase 1 to IC50 for inhibition of recombinant human FTase
[32] = Inhibition of FTase in human DLD-1 cells expressing moderate level of P-gp1 using Ras as substrate assessed as inhibition of substrate post-translation processing in presence of 10% human serum by immunoblot analysis; assay type: cell-based
Mus musculus [33] = assay: Antiangiogenic activity in human recombinant bFGF-stimulated CF1 mouse corneal model assessed as inhibition of new blood growth area at 100 mg/kg, sc prestimulated with bFGF followed by compound administration and measured on day 5 by slit lamp biomicroscopic analysis relative to control; assay type: functional; settings: CF1, 120 h, time 5 day

Cn1cncc1[C@](O)(COc1ccc(C#N)cc1-c1ccc(OC(F)(F)F)cc1)c1ccc(C#N)cc1 [ABT-100]
Ratio EC50 [1]: >41000 | Cmax [2]: 80 ng/mL | EC50 [3]: 0.73 nM | T/C (HCT-116 [4]): 32% | inhibition (NIH3T3 [5]): Dose-Dependent Effect | Activity (HCT-116 [6]): 1530 mm3 | T/C (HCT-116 [7]): 56% | ILS at 50 mg/kg (HCT-116 [8]): 32% | Activity (HCT-116 [9]): 899 mm3 | Ratio EC50 [10]: 1.5 | ILS at 12.5 mg/kg (HCT-116 [11]): 61% | bioavailability [12]: 35.1% | Ratio EC50 [13]: 1.5 | T/C (HCT-116 [14]): 65% | Activity (HCT-116 [15]): 721 mm3 | ILS at 100 mg/kg (HCT-116 [16]): 32% | Vd [17]: 5.6 L/kg | AUC [18]: 4620 ng·h/mL | Vd [19]: 3.3 L/kg | inhibition in vivo at 25 mg/kg (Mus musculus [20]): 32% | bioavailability [21]: 15.1% | Cmax [22]: 280 ng/mL | bioavailability [23]: 30.7% | IC50 [24]: 0.13 nM | ILS at 6.25 mg/kg (HCT-116 [25]): 50% | half-life [26]: 5.9 h | EC50 (NIH3T3 [27]; NIH3T3, 336 h): 0.9 nM | inhibition (NIH3T3 [27]; time 14.0 day): Dose-Dependent Effect | inhibition in vivo at 50 mg/kg (Mus musculus [28]): 34% | inhibition (HCT-116 [29]): Dose-Dependent Effect | Activity (HCT-116 [30]): 873 mm3 | Ratio IC50 [31]: > 100000 | EC50 [32]: 0.4 nM | inhibition in vivo at 100 mg/kg (Mus musculus [33]): 49%

— ChEMBL document CHEMBL5678796, “A highly potent and selective farnesyltransferase inhibitor ABT-100 in preclinical studies” (Anticancer Drugs, 2005)
